Source: ChEMBL document CHEMBL3885861, “Open TG-GATES”

Species: Rattus norvegicus
Assay: Open TG-GATES - Regimen: Single
Format: toxicity, organism-based, Sprague-Dawley
Set-up: regimen Single, gender Male, age 6 weeks
Settings: in vivo, po, route gavage; for Eos / Fbg / Hb / Ht / Lym / MCH / MCHC / MCV / Mono / Neu / PT / Plat / RBC / Ret / WBC / APTT / Bas: tissue Blood; for KIDNEY_L / KIDNEY_R / KIDNEY_TOTAL: tissue Kidney; for LIVER: tissue Liver; for A/G / ALP / ALT / AST / BUN / CRE / Ca / Cl / DBIL / GLC / IP / K / LDH / Na / PL / RALB / TBIL / TC / TG / TP / gamma-GTP: tissue Plasma
[1] = 30 mg/kg, 3 h, dose level Middle
[2] = 30 mg/kg, 6 h, dose level Middle
[3] = 30 mg/kg, 9 h, dose level Middle

With `O=C1CN(/N=C/c2ccc([N+](=O)[O-])o2)C(=O)N1` [NITROFURANTOIN] the Eos (10 mg/kg, 24 h, dose level Low) was 1%, the Fbg (10 mg/kg, 24 h, dose level Low) was 212.8 mg/dL and the Hb (10 mg/kg, 24 h, dose level Low) was 13.1 g/dL. For the same compound, the Ht (10 mg/kg, 24 h, dose level Low) was 37.6%, the Lym (10 mg/kg, 24 h, dose level Low) was 80.2% and the MCH (10 mg/kg, 24 h, dose level Low) was 21.9 pg. The MCHC (10 mg/kg, 24 h, dose level Low) was 34.9%, the MCV (10 mg/kg, 24 h, dose level Low) was 62.7 fL and the Mono (10 mg/kg, 24 h, dose level Low) was 2.2%. The Neu (10 mg/kg, 24 h, dose level Low) was 15.4%, the PT (10 mg/kg, 24 h, dose level Low) was 12.6 s and the Plat (10 mg/kg, 24 h, dose level Low) was 126.9 x10_4/uL. The RBC (10 mg/kg, 24 h, dose level Low) was 599.6 x10_4/ul, the Ret (10 mg/kg, 24 h, dose level Low) was 7% and the WBC (10 mg/kg, 24 h, dose level Low) was 79.2 x10_2/uL. For the same compound, the KIDNEY_L (10 mg/kg, 24 h, dose level Low) was 1.1 g, the KIDNEY_R (10 mg/kg, 24 h, dose level Low) was 1.1 g and the KIDNEY_TOTAL (10 mg/kg, 24 h, dose level Low) was 2.1 g. For the same compound, the LIVER (10 mg/kg, 24 h, dose level Low) was 11.3 g, the A/G (10 mg/kg, 24 h, dose level Low) was 1.6 and the ALP (10 mg/kg, 24 h, dose level Low) was 999.6 IU/L. For the same compound, the ALT (10 mg/kg, 24 h, dose level Low) was 38.4 IU/L, the AST (10 mg/kg, 24 h, dose level Low) was 63.4 IU/L and the BUN (10 mg/kg, 24 h, dose level Low) was 16.8 mg/dL. For the same compound, the CRE (10 mg/kg, 24 h, dose level Low) was 0.4 mg/dL, the Ca (10 mg/kg, 24 h, dose level Low) was 10.9 mg/dL and the Cl (10 mg/kg, 24 h, dose level Low) was 101.8 meq/L. The DBIL (10 mg/kg, 24 h, dose level Low) was 0.1 mg/dL, the GLC (10 mg/kg, 24 h, dose level Low) was 211.6 mg/dL and the IP (10 mg/kg, 24 h, dose level Low) was 7.1 mg/dL. It also gave a K (10 mg/kg, 24 h, dose level Low) of 4.3 meq/L, an LDH (10 mg/kg, 24 h, dose level Low) of 168.2 IU/L and a Na (10 mg/kg, 24 h, dose level Low) of 139.4 meq/L. The PL (10 mg/kg, 24 h, dose level Low) was 151.6 mg/dL, the RALB (10 mg/kg, 24 h, dose level Low) was 3.3 g/dL and the TBIL (10 mg/kg, 24 h, dose level Low) was 0.2 mg/dL. The TC (10 mg/kg, 24 h, dose level Low) was 78.8 mg/dL, the TG (10 mg/kg, 24 h, dose level Low) was 105.8 mg/dL and the TP (10 mg/kg, 24 h, dose level Low) was 5.4 g/dL. The gamma-GTP (10 mg/kg, 24 h, dose level Low) was 0.8 IU/L, the TERMINAL_BW [1] was 218.7 g and the APTT [1] was 18.8 s. The Bas [1] was 0%, the Eos [1] was 1.2% and the Fbg [1] was 219.2 mg/dL. For the same compound, the Hb [1] was 13.8 g/dL, the Ht [1] was 39.3% and the Lym [1] was 79%. The MCH [1] was 21.6 pg, the MCHC [1] was 35.2% and the MCV [1] was 61.4 fL. For the same compound, the Mono [1] was 2%, the Neu [1] was 16.8% and the PT [1] was 12.6 s. The Plat [1] was 113.7 x10_4/uL, the RBC [1] was 642 x10_4/ul and the Ret [1] was 7.5%. For the same compound, the WBC [1] was 82.7 x10_2/uL, the KIDNEY_L [1] was 1 g and the KIDNEY_R [1] was 1 g. It also gave a KIDNEY_TOTAL [1] of 2 g, an LIVER [1] of 10.8 g and an A/G [1] of 1.5. It also gave an ALP [1] of 1203 IU/L, an ALT [1] of 37.6 IU/L and an AST [1] of 66.6 IU/L. For the same compound, the BUN [1] was 12.8 mg/dL, the CRE [1] was 0.4 mg/dL and the Ca [1] was 10.6 mg/dL. It also gave a Cl [1] of 101.4 meq/L, a DBIL [1] of 0.074 mg/dL and a GLC [1] of 194.6 mg/dL. The IP [1] was 9 mg/dL, the K [1] was 4 meq/L and the LDH [1] was 180 IU/L. It also gave a Na [1] of 140.6 meq/L, a PL [1] of 136 mg/dL and an RALB [1] of 3.3 g/dL. The TBIL [1] was 0.1 mg/dL, the TC [1] was 74.6 mg/dL and the TG [1] was 62.2 mg/dL. For the same compound, the TP [1] was 5.5 g/dL, the gamma-GTP [1] was 0.8 IU/L and the TERMINAL_BW [2] was 219.6 g. The APTT [2] was 19 s, the Bas [2] was 0% and the Eos [2] was 1%. It also gave a Fbg [2] of 219 mg/dL, a Hb [2] of 13.3 g/dL and a Ht [2] of 37.6%. For the same compound, the Lym [2] was 75%, the MCH [2] was 21.5 pg and the MCHC [2] was 35.3%. The MCV [2] was 61 fL, the Mono [2] was 2.6% and the Neu [2] was 20%. The PT [2] was 12.7 s, the Plat [2] was 115.2 x10_4/uL and the RBC [2] was 616.2 x10_4/ul. It also gave a Ret [2] of 7.6%, a WBC [2] of 82.3 x10_2/uL and a KIDNEY_L [2] of 1 g. It also gave a KIDNEY_R [2] of 1 g, a KIDNEY_TOTAL [2] of 2 g and an LIVER [2] of 9.8 g. For the same compound, the A/G [2] was 1.6, the ALP [2] was 861.8 IU/L and the ALT [2] was 31 IU/L. For the same compound, the AST [2] was 58.8 IU/L, the BUN [2] was 11 mg/dL and the CRE [2] was 0.4 mg/dL. The Ca [2] was 10.6 mg/dL, the Cl [2] was 103.2 meq/L and the DBIL [2] was 0.072 mg/dL. The GLC [2] was 191 mg/dL, the IP [2] was 9.2 mg/dL and the K [2] was 4.1 meq/L. It also gave an LDH [2] of 168.6 IU/L, a Na [2] of 140.8 meq/L and a PL [2] of 132 mg/dL. It also gave an RALB [2] of 3.3 g/dL, a TBIL [2] of 0.1 mg/dL and a TC [2] of 73.4 mg/dL. It also gave a TG [2] of 64 mg/dL, a TP [2] of 5.4 g/dL and a gamma-GTP [2] of 0.8 IU/L. For the same compound, the TERMINAL_BW [3] was 216.9 g, the APTT [3] was 18.6 s and the Bas [3] was 0%. For the same compound, the Eos [3] was 0.8%, the Fbg [3] was 213.4 mg/dL and the Hb [3] was 13.3 g/dL. For the same compound, the Ht [3] was 38%, the Lym [3] was 79.6% and the MCH [3] was 21.9 pg. The MCHC [3] was 35.1%, the MCV [3] was 62.3 fL and the Mono [3] was 3.2%. For the same compound, the Neu [3] was 14.8%, the PT [3] was 12.9 s and the Plat [3] was 107.6 x10_4/uL. For the same compound, the RBC [3] was 609.8 x10_4/ul, the Ret [3] was 7.5% and the WBC [3] was 96.9 x10_2/uL. The KIDNEY_L [3] was 1 g, the KIDNEY_R [3] was 1 g and the KIDNEY_TOTAL [3] was 2 g. It also gave an LIVER [3] of 9.5 g.
